Source: publication PMC10674160, “Synthesis and Preclinical Evaluation of Radiolabeled [^103Ru]BOLD-100” (Pharmaceutics, 2023)

Assay: Tissue distribution in CT26 allograft bearing Balb/c mice (ICP-MS for 3a, gamma counting for 3b)
Assay type: in vivo
Procedure: UV/Vis spectra were recorded on a Hitachi U-2000 Dual Beam spectrophotometer. Sample activities were measured on an ISOMED 2010 dose calibrator. For centrifugation during synthesis, a Fisherbrand^TM Mini-Centrifuge from Fisher Scientific was used. Radioactive organ samples were measured on Perkin Elmer Wizard^2 gamma counter. Non-radioactive organ samples were prepared, and the ruthenium content was quantified with ICP-MS. The exact procedure including instrument information can be found in the Supplementary Materials.
For the evaluation of organ distribution, CT26 cells (5 × 10^5 in serum-free medium) were injected subcutaneously into the right flank of Balb/c mice. Animals were controlled for distress development every day and tumor size was assessed regularly using caliper measurements. CT26 cells were inoculated 10 days prior to drug application. Tumor volume was calculated using the formula: (length × width^2); the tumors reached a size of about 500 mm^3. Animals were treated once intravenously (i.v.) via tail-vein injection with 3a or 3b at a dose of 30 mg/kg (dissolved in 0.9% NaCl, 0.6 mg/100 µL/20 g mouse) and a specific activity of 0.64–1.36 MBq/mg for compound 3b. The mice were anesthetized and sacrificed by cervical fracture 4, 24, 48 and 72 h p.i., with n ≥ 2 (3a) and n ≥ 3 (3b) for each time point. Samples of tumor, liver, kidney, muscle, heart, lung, spleen, pancreas, stomach, colon, small intestine, brain, bone, and blood were collected from each mouse. After clotting at RT, serum was isolated from the collected blood samples by centrifugation at 3000 rpm for 10 min twice and stored together with the collected tissue samples at −20 °C. Finally, the ruthenium content was quantified by ICP-MS in the case of the non-radioactive BOLD-100 (3a) and via gamma counting for [^103Ru]BOLD-100 (3b).
An Agilent 7800 ICP-MS (Agilent Technologies, Tokyo, Japan) was being employed, which was equipped with an Agilent SPS 4 autosampler (Agilent Technologies, Tokyo, Japan) and a MicroMist nebulizer at a sample uptake rate of approx. 0.2 mL/min. The Agilent MassHunter software package (Workstation Software, Version C.01.04, 2018) was used for data evaluation. The instrumental parameters […]
Reference source not found..
Ta ble S1: Instrumental parameters for the ICP-MS measurements […]
Spray chamber Scott double-pass
Spraying chamber temp. 2°C
Nebulizer gas 1.06 L min−1
Auxiliary gas 0.90 L min−1
The instrumental limit of quantification (LOQ) was determined at the start of the measurement by […]
LOQ = blank average + 10*STD
Blank corrections were performed for all the samples. Robustness was ensured by tuning the ICP-MS on a daily basis, by using an internal standard (115In) and measuring calibration standards for each […]
Ultrapure water (18.2 MΩ cm, ELGA Water purification system, Purelab Ultra MK 2, UK or 18.2 MΩ cm, Milli-Q Advantage, Darmstadt, Germany), HNO3 (≥69%, Rotipuran Supra, Carl Roth, Karlsruhe, Germany) and H2O2 (30%, Suprapur, Merck, Darmstadt, Germany) were used for all dilutions for ICP-MS measurements. The Ru standard solution was purchased from Labkings (Hilversum, The Netherlands).
For the digestion, approx. 25–50 mg of each organ sample were weighed into PFA-tubes, with 2 mL HNO3 and 100 µL H2O2 being added. The solutions were then placed on a hot plate and heated up for 6 hours using a temperature program with a maximum temperature of 200 °C. After cooling down, the liquids were transferred directly to 15 mL tubes with the remaining solution being removed from the PFA tubes by washing twice with 4 mL ultrapure water, resulting in a final volume of about 10 mL. By writing down the total weight of the resulting liquid, the dilution factor could be calculated.

[1] = Tumor, 24 h p.i., 30 mg/kg i.v.

**Q.** Which results are given for `[Cl][Ru]([Cl])([Cl])[Cl].[Na+].c1ccc2[nH]ncc2c1.c1ccc2[nH]ncc2c1` [3b, [^103Ru]sodium trans-[tetrachloridobis(indazole)ruthenate(III)]]?
**A.** tumor/organ ratio Blood cells (Blood cells, 4 h): 0.4 ± 0.1; %ID/g tissue Blood cells (Blood cells, 4 h p.i., 30 mg/kg i.v.): 11.98 ± 2.26 %ID/g tissue; %ID/g tissue Blood cells (Blood cells, 24 h p.i., 30 mg/kg i.v.): 3.41 ± 0.97 %ID/g tissue; %ID/g tissue Blood cells (Blood cells, 48 h p.i., 30 mg/kg i.v.): 2.94 ± 1.32 %ID/g tissue; %ID/g tissue Blood cells (Blood cells, 72 h p.i., 30 mg/kg i.v.): 2.19 ± 0.96 %ID/g tissue; tumor/organ ratio Bones (4 h): 3.4 ± 0.5; %ID/g tissue Bones (4 h p.i., 30 mg/kg i.v.): 1.34 ± 0.30 %ID/g tissue; tumor/organ ratio Bones (24 h): 5.4 ± 0.6; %ID/g tissue Bones (24 h p.i., 30 mg/kg i.v.): 1.19 ± 0.29 %ID/g tissue; tumor/organ ratio Bones (48 h): 7.0 ± 0.8; %ID/g tissue Bones (48 h p.i., 30 mg/kg i.v.): 0.90 ± 0.24 %ID/g tissue; tumor/organ ratio Bones (72 h): 4.9 ± 1.7; %ID/g tissue Bones (72 h p.i., 30 mg/kg i.v.): 1.00 ± 0.15 %ID/g tissue; tumor/organ ratio Brain (4 h): 10.7 ± 3.3; %ID/g tissue Brain (4 h p.i., 30 mg/kg i.v.): 0.46 ± 0.20 %ID/g tissue; tumor/organ ratio Brain (24 h): 51.9 ± 4.4; %ID/g tissue Brain (24 h p.i., 30 mg/kg i.v.): 0.12 ± 0.02 %ID/g tissue; tumor/organ ratio Brain (48 h): 53.3 ± 14.3; %ID/g tissue Brain (48 h p.i., 30 mg/kg i.v.): 0.13 ± 0.05 %ID/g tissue; tumor/organ ratio Brain (72 h): 54.3 ± 15.1; %ID/g tissue Brain (72 h p.i., 30 mg/kg i.v.): 0.09 ± 0.05 %ID/g tissue; %ID/g tissue Colon (4 h p.i., 30 mg/kg i.v.): 3.89 ± 0.96 %ID/g tissue; %ID/g tissue Colon (24 h p.i., 30 mg/kg i.v.): 1.88 ± 0.37 %ID/g tissue; %ID/g tissue Colon (48 h p.i., 30 mg/kg i.v.): 2.34 ± 0.72 %ID/g tissue; %ID/g tissue Colon (72 h p.i., 30 mg/kg i.v.): 2.19 ± 0.77 %ID/g tissue; tumor/organ ratio Fat (4 h): 5.1 ± 2.1; tumor/organ ratio Fat (24 h): 10.3 ± 2.1; tumor/organ ratio Fat (48 h): 13.3 ± 5.0; tumor/organ ratio Fat (72 h): 8.6 ± 3.5; tumor/organ ratio Heart (4 h): 0.8 ± 0.2; %ID/g tissue Heart (4 h p.i., 30 mg/kg i.v.): 5.93 ± 1.10 %ID/g tissue; tumor/organ ratio Heart (24 h): 2.0 ± 0.2; %ID/g tissue Heart (24 h p.i., 30 mg/kg i.v.): 3.24 ± 0.73 %ID/g tissue; tumor/organ ratio Heart (48 h): 2.1 ± 0.2; %ID/g tissue Heart (48 h p.i., 30 mg/kg i.v.): 2.98 ± 0.41 %ID/g tissue; tumor/organ ratio Heart (72 h): 1.5 ± 0.4; %ID/g tissue Heart (72 h p.i., 30 mg/kg i.v.): 3.12 ± 0.84 %ID/g tissue; tumor/organ ratio Kidneys (4 h): 0.4 ± 0.1; %ID/g tissue Kidneys (4 h p.i., 30 mg/kg i.v.): 12.98 ± 2.87 %ID/g tissue; tumor/organ ratio Kidneys (24 h): 0.5 ± 0.1; %ID/g tissue Kidneys (24 h p.i., 30 mg/kg i.v.): 12.55 ± 0.74 %ID/g tissue; tumor/organ ratio Kidneys (48 h): 0.5 ± 0.1; %ID/g tissue Kidneys (48 h p.i., 30 mg/kg i.v.): 11.79 ± 2.66 %ID/g tissue; %ID/g tissue Kidneys (72 h p.i., 30 mg/kg i.v.): 13.14 ± 5.56 %ID/g tissue; tumor/organ ratio Liver (4 h): 0.2 ± 0.2; %ID/g tissue Liver (4 h p.i., 30 mg/kg i.v.): 24.41 ± 3.17 %ID/g tissue; tumor/organ ratio Liver (24 h): 0.5 ± 0.1; %ID/g tissue Liver (24 h p.i., 30 mg/kg i.v.): 13.83 ± 3.38 %ID/g tissue; tumor/organ ratio Liver (48 h): 0.4 ± 0.1; %ID/g tissue Liver (48 h p.i., 30 mg/kg i.v.): 14.54 ± 2.69 %ID/g tissue; tumor/organ ratio Liver (72 h): 0.4 ± 0.1; %ID/g tissue Liver (72 h p.i., 30 mg/kg i.v.): 12.26 ± 2.85 %ID/g tissue; %ID/g tissue Lung (4 h p.i., 30 mg/kg i.v.): 9.77 ± 1.75 %ID/g tissue; %ID/g tissue Lung (24 h p.i., 30 mg/kg i.v.): 5.89 ± 3.04 %ID/g tissue; %ID/g tissue Lung (48 h p.i., 30 mg/kg i.v.): 5.08 ± 1.93 %ID/g tissue; %ID/g tissue Lung (72 h p.i., 30 mg/kg i.v.): 4.47 ± 2.10 %ID/g tissue; %ID/g tissue Muscle (4 h p.i., 30 mg/kg i.v.): 1.05 ± 0.14 %ID/g tissue; %ID/g tissue Muscle (24 h p.i., 30 mg/kg i.v.): 0.57 ± 0.19 %ID/g tissue; %ID/g tissue Muscle (48 h p.i., 30 mg/kg i.v.): 0.60 ± 0.16 %ID/g tissue; %ID/g tissue Muscle (72 h p.i., 30 mg/kg i.v.): 0.65 ± 0.17 %ID/g tissue; %ID/g tissue Pancreas (4 h p.i., 30 mg/kg i.v.): 3.75 ± 1.07 %ID/g tissue; %ID/g tissue Pancreas (24 h p.i., 30 mg/kg i.v.): 1.74 ± 0.39 %ID/g tissue; %ID/g tissue Pancreas (48 h p.i., 30 mg/kg i.v.): 2.50 ± 1.33 %ID/g tissue; %ID/g tissue Pancreas (72 h p.i., 30 mg/kg i.v.): 2.01 ± 0.75 %ID/g tissue; tumor/organ ratio Serum (4 h): 0.2 ± 0.0; %ID/g tissue Serum (4 h p.i., 30 mg/kg i.v.): 28.02 ± 4.87 %ID/g tissue; tumor/organ ratio Serum (24 h): 0.8 ± 0.1; %ID/g tissue Serum (24 h p.i., 30 mg/kg i.v.): 8.57 ± 3.37 %ID/g tissue; tumor/organ ratio Serum (48 h): 1.3 ± 0.4; %ID/g tissue Serum (48 h p.i., 30 mg/kg i.v.): 5.31 ± 2.78 %ID/g tissue; tumor/organ ratio Serum (72 h): 1.4 ± 0.3; %ID/g tissue Serum (72 h p.i., 30 mg/kg i.v.): 3.63 ± 1.78 %ID/g tissue; %ID/g tissue Small intestine (4 h p.i., 30 mg/kg i.v.): 5.49 ± 1.12 %ID/g tissue; %ID/g tissue Small intestine (24 h p.i., 30 mg/kg i.v.): 2.49 ± 0.76 %ID/g tissue; %ID/g tissue Small intestine (48 h p.i., 30 mg/kg i.v.): 2.54 ± 0.95 %ID/g tissue; %ID/g tissue Small intestine (72 h p.i., 30 mg/kg i.v.): 1.92 ± 0.47 %ID/g tissue; %ID/g tissue Spleen (4 h p.i., 30 mg/kg i.v.): 4.63 ± 0.61 %ID/g tissue; %ID/g tissue Spleen (24 h p.i., 30 mg/kg i.v.): 3.92 ± 0.66 %ID/g tissue; %ID/g tissue Spleen (48 h p.i., 30 mg/kg i.v.): 6.01 ± 2.98 %ID/g tissue; %ID/g tissue Spleen (72 h p.i., 30 mg/kg i.v.): 5.08 ± 1.56 %ID/g tissue; %ID/g tissue Stomach (4 h p.i., 30 mg/kg i.v.): 2.88 ± 0.82 %ID/g tissue; %ID/g tissue Stomach (24 h p.i., 30 mg/kg i.v.): 1.34 ± 0.22 %ID/g tissue; %ID/g tissue Stomach (48 h p.i., 30 mg/kg i.v.): 1.60 ± 0.36 %ID/g tissue; %ID/g tissue Stomach (72 h p.i., 30 mg/kg i.v.): 1.69 ± 0.64 %ID/g tissue; %ID/g tissue Tumor (Tumor, 4 h p.i., 30 mg/kg i.v.): 4.49 ± 1.03 %ID/g tissue; %ID/g tissue Tumor [1]: 6.39 ± 1.44 %ID/g tissue; tumor uptake (highest level) [1]: 6.4 %ID/g; %ID/g tissue Tumor (Tumor, 48 h p.i., 30 mg/kg i.v.): 6.19 ± 1.26 %ID/g tissue; %ID/g tissue Tumor (Tumor, 72 h p.i., 30 mg/kg i.v.): 4.77 ± 1.68 %ID/g tissue
